Measurements reported in ChEMBL document CHEMBL5233226 (Eur J Med Chem, 2020).
*1 amine or outer side, *2 acyl side, *3 side chain or, on linkers, in order; H or OH if unused. Where a SMILES comes first, the peptide text is derived from it. Bridges are numbered along the chain shown (N, C = ends). TBMB = c1c(C[*:1])cc(C[*:3])cc1C[*:2]

How the values were obtained:
Plasma kallikrein [1] = target: T1, Plasma kallikrein (Homo sapiens, UniProt P03952); assay: Inhibition of plasma kallikrein (unknown origin)
Plasminogen [2] = target: T2, Plasminogen (Homo sapiens, UniProt P00747); assay: Inhibition of plasmin (unknown origin)
Trypsin [3] = target: T3, Trypsin (Homo sapiens, UniProt P07477+P07478+P35030); assay: Inhibition of trypsin (unknown origin); format: protein assay
[4] = target: Urokinase-type plasminogen activator (Homo sapiens, UniProt P00749); assay: Inhibition of Urokinase (unknown origin)
Plasma kallikrein [5] = target: T1, Plasma kallikrein; assay: Inhibition of human plasma kallikrein usingPro-Phe-Arg-AMC as substrate incubated for 5 mins; format: single protein
Plasma kallikrein [6] = target: Plasma kallikrein (Rattus norvegicus, UniProt P14272); assay: Inhibition of rat recombinant plasma kallikrein using Z-FR-AMC as substrate assessed as inhibition constant by fluorescence plate reader analysis
Plasminogen [7] = target: T2, Plasminogen; assay: Inhibition of human plasmin using H-d-VLK-AM as substrate assessed as inhibition constant by fluorescence plate reader analysis
Prothrombin [8] = target: T4, Prothrombin (Homo sapiens, UniProt P00734); assay: Inhibition of human thrombin using Z-GGR-AMC as substrate assessed as inhibition constant by fluorescence plate reader analysis
Coagulation factor XI [9] = target: T5, Coagulation factor XI (Homo sapiens, UniProt P03951); assay: Inhibition of human fXIa using Boc-FSR-AMC as substrate assessed as inhibition constant by fluorescence plate reader analysis
Coagulation factor XII [10] = target: T6, Coagulation factor XII (Homo sapiens, UniProt P00748); assay: Inhibition of human fXIIa using Z-GGR-AMC as substrate assessed as inhibition constant by fluorescence plate reader analysis
T6 sequence (P00748 whole entry): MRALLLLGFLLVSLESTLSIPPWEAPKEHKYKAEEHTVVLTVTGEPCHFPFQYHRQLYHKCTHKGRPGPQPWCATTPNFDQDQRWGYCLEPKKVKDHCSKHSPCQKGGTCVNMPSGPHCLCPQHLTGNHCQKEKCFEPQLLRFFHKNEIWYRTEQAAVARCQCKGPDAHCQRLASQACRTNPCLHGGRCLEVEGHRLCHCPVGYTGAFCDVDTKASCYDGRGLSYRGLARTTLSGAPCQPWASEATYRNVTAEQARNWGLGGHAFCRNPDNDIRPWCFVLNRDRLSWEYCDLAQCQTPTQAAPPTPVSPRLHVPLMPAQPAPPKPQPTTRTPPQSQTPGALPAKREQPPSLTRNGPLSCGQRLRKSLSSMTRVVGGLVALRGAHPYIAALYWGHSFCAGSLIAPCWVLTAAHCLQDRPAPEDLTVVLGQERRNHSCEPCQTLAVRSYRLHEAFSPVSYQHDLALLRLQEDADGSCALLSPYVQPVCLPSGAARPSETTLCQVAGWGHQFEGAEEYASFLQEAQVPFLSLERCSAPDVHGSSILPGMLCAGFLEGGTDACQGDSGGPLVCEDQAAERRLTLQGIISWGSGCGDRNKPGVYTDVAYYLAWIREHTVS

Plasma kallikrein [11] = target: T1, Plasma kallikrein; assay: Inhibition of human plasma kallikrein using H-D-Pro-Phe-Arg-p-nitroaniline as substrate assessed as inhibition constant
Prothrombin [12] = target: T4, Prothrombin; assay: Inhibition of thrombin (unknown origin)
Coagulation factor XII [13] = target: T6, Coagulation factor XII; assay: Inhibition of fXIIa (unknown origin)
Plasminogen [14] = target: T2, Plasminogen; assay: Inhibition of human plasmin by fluorescence based analysis
Prothrombin [15] = target: T4, Prothrombin; assay: Inhibition of human thrombin by fluorescence based analysis
Kallikrein-1 [16] = target: T7, Kallikrein-1 (Homo sapiens, UniProt P06870); assay: Inhibition of KLK1 (unknown origin)
Plasma kallikrein [17] = target: T1, Plasma kallikrein; assay: Inhibition of human plasma kallikrein incubated for 1 hrs
Coagulation factor XI [18] = target: T5, Coagulation factor XI; assay: Inhibition of human fXIa using Z-Gly-Pro-Arg-AFC as substrate
Coagulation factor XII [19] = target: T6, Coagulation factor XII; assay: Inhibition of human fXIIa using H-DPro-Phe-Arg-AFC as substrate
Trypsin [20] = target: T3, Trypsin; assay: Inhibition of human trypsin; format: protein assay
Plasminogen [21] = target: T2, Plasminogen; assay: Inhibition of human plasmin
Prothrombin [22] = target: T4, Prothrombin; assay: Inhibition of human thrombin
Plasma kallikrein [23] = target: T1, Plasma kallikrein; assay: Inhibition of human plasma kallikrein using H-DPro-Phe-Arg-AFC as substrate
Coagulation factor XI [24] = target: T5, Coagulation factor XI; assay: Inhibition of human fXIa
Kallikrein-1 [25] = target: T7, Kallikrein-1; assay: Inhibition of human KLK1

T1 sequence (P03952 20-390 limits assumed): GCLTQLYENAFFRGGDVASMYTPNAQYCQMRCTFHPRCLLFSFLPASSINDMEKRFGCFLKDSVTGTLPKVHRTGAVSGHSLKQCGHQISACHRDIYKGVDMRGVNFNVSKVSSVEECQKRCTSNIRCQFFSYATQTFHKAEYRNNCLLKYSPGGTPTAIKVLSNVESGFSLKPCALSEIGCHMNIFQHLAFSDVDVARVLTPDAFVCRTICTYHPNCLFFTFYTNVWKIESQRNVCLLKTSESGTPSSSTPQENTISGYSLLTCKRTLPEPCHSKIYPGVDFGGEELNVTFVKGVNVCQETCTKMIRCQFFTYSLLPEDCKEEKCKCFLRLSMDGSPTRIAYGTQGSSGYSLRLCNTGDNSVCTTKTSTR
T1 sequence (P03952 391-638 limits assumed): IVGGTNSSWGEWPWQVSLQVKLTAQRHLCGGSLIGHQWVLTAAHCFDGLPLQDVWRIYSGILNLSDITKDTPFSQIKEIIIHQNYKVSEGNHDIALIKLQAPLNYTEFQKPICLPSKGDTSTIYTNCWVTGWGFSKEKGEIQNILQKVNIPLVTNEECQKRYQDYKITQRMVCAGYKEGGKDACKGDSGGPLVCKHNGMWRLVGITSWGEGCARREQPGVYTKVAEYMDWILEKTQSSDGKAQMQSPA
T2 sequence (P00747 97-580 limits assumed): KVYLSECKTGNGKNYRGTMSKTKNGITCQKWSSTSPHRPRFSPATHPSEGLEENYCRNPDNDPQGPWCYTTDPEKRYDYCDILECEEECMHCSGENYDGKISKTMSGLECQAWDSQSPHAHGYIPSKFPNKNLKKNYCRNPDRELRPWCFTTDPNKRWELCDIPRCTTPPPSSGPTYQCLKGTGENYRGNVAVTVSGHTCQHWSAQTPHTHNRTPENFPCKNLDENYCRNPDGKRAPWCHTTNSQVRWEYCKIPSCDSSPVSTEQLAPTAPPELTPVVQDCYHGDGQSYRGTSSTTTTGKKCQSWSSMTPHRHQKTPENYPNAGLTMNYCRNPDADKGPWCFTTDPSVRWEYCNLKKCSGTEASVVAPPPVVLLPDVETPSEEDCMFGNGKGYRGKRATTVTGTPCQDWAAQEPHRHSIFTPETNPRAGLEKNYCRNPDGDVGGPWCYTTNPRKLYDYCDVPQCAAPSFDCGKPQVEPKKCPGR
T2 sequence (P00747 581-810 limits assumed): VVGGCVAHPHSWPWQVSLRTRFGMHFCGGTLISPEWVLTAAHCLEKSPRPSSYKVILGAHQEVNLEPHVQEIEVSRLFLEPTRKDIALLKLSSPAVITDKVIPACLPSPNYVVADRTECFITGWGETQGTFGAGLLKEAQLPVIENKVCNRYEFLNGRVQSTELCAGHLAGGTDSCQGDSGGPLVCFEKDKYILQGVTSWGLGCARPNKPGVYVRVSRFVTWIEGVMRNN
T5 sequence (P03951 19-387 limits assumed): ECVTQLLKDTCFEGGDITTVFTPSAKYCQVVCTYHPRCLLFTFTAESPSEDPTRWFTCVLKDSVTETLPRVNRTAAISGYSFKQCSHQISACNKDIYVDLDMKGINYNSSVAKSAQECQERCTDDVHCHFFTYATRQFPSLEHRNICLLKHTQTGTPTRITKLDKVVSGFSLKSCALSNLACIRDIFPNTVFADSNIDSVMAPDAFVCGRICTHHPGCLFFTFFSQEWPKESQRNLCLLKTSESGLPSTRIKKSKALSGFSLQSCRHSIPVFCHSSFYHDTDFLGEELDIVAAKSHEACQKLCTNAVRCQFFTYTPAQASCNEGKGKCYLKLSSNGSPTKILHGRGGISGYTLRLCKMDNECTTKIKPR
T5 sequence (P03951 388-625 limits assumed): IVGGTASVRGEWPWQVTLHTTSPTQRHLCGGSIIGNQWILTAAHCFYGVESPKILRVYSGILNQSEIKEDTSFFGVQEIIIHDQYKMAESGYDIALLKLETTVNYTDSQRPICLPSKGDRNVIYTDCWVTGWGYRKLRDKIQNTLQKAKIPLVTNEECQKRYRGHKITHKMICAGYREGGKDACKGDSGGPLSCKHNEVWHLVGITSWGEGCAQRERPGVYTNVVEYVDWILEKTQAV
T7 sequence (P06870 whole entry): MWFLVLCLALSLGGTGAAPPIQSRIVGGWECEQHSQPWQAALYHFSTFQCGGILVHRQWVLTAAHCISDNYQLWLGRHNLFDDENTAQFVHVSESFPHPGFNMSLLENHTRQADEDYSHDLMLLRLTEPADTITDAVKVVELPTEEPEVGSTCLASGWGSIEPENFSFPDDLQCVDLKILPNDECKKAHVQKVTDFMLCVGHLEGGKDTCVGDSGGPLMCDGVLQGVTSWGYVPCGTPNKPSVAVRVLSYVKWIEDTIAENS
Sequence of Plasma kallikrein (Rattus norvegicus, UniProt P14272) (P14272 20-390 limits assumed): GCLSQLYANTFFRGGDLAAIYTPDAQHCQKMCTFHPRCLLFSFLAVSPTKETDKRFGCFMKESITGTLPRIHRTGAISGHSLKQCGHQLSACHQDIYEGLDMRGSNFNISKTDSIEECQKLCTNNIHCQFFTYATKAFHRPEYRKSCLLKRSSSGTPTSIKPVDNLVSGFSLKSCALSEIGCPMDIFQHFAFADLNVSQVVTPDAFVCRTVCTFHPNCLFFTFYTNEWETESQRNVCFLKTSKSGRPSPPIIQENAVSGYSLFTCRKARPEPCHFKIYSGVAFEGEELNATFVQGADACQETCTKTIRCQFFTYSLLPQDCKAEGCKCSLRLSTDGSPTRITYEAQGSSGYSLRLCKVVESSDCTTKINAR
Sequence of Plasma kallikrein (Rattus norvegicus, UniProt P14272) (P14272 391-638 limits assumed): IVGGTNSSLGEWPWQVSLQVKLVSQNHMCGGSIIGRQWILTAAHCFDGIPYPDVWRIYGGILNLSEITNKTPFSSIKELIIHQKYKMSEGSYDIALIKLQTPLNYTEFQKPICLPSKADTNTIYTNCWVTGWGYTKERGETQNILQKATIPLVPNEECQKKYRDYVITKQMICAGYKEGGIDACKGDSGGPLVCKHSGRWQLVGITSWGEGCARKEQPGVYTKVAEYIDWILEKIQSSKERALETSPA

## NCC1CCC(C(=O)N[C@@H](Cc2ccccc2)C(=O)Nc2ccc(CC(=O)O)cc2)CC1 (some centres not stated)
Plasma kallikrein [1]
  IC50: 1.3 µM
Plasminogen [2]
  IC50: 620 µM
Trypsin [3]
  IC50: 12 µM
[4]
  IC50: 350 µM

## CS(=O)(=O)c1cc(Cc2cc(C(=O)NCc3cnc4[nH]cc(Cl)c4c3)ccn2)ccc1Cn1ccccc1=O
Plasma kallikrein [5]
  IC50: < 0.1 µM

## CC(N)C(=O)NC1CSCc2cc3cc(c2)CSCC(C(=O)NC(C)C(N)=O)NC(=O)C(CCCNC(=N)N)NC(=O)C(C(C)C)NC(=O)C(CC(N)=O)NC(=O)C(CSC3)NC(=O)C(C)NC(=O)C(CCCCN)NC(=O)C(Cc2ccccc2)NC1=O (configuration not stated) (H-ACFKACNVRCA-NH2; linker 2-6-10 via TBMB; configuration not given here)
Plasma kallikrein [6]
  Ki: 0.0272 µM
Plasminogen [7]
  Ki: 0.0052 µM
Prothrombin [8]
  IC50: > 50 µM
Coagulation factor XI [9]
  Ki: > 50 µM
Coagulation factor XII [10]
  Ki: > 50 µM

## Cc1nc(N)ccc1CNC(=O)c1ccnc(Cc2ccc(Cn3ccccc3=O)c(S(C)(=O)=O)c2)c1
Plasma kallikrein [5]
  IC50: < 0.1 µM

## NC(CCC1CC1)(c1ccc(F)c(NC(=O)[C@H]2C[C@](O)(c3ccccc3)CN2C(=O)Nc2ccc(Cl)cc2)c1)c1ccccn1 (some centres not stated)
Plasma kallikrein [11]
  IC50: < 0.05 µM

## CCOc1ccc(C[C@@H](NC(=O)c2ccccc2)C(=O)N[C@@H](Cc2ccccc2)C(=O)NCc2ccc(CN)cc2)cc1
Plasminogen [2]
  IC50: 0.022 µM
Prothrombin [12]
  IC50: > 10 µM
Coagulation factor XII [13]
  IC50: > 50 µM
Plasminogen [14]
  IC50: > 10 µM
Prothrombin [15]
  IC50: > 10 µM

## COC(=O)c1ccc(NC(=O)[C@H](CCCCNC(=N)N)NC(=O)C2CCC(CN)CC2)cc1 (some centres not stated)
Plasma kallikrein [1]
  IC50: 18 µM

## COCc1nn(Cc2ccc(Cn3cc(F)ccc3=O)cc2)cc1C(=O)NCc1nccc(OC)c1F
Plasminogen [2]
  IC50: > 40 µM
Prothrombin [12]
  IC50: > 40 µM
Kallikrein-1 [16]
  IC50: > 40 µM
Trypsin [3]
  IC50: > 40 µM

## CO[C@@H]1C[C@H](C(=O)Nc2cc(C(N)(CCC3CC3)c3cccc(C#N)c3)ccc2F)N(C(=O)Nc2ccc(Cl)cn2)C1 (some centres not stated)
Plasma kallikrein [11]
  IC50: < 0.05 µM

## Fc1cc2[nH]cc(Cl)c2cc1CNc1ncnc2nc(Cc3ccc4ncc(C(F)(F)F)cc4c3)[nH]c12
Plasma kallikrein [5]
  IC50: < 0.1 µM

## NCc1cccc(-n2nc(C(N)=O)cc2C(=O)Nc2cc(C(NCC3CC3)c3ccccc3)ccc2F)c1 (configuration not stated)
Plasma kallikrein [11]
  IC50: 0.1 µM
  Ki: 0.0001 µM

## Cc1cnn(Cc2ccc(Cn3cc(C(=O)NCc4cnc5[nH]cc(Cl)c5c4)c(C#N)n3)cc2)c1
Plasma kallikrein [17]
  IC50: 0.001 µM

## CC(=O)c1ccc(NC(=O)[C@H](Cc2ccccc2)NC(=O)C2CCC(CN)CC2)cc1 (some centres not stated)
Plasma kallikrein [1]
  IC50: 0.85 µM
Plasminogen [2]
  IC50: 21 µM
[4]
  IC50: 58 µM

## CCO[C@@H]1C[C@H](C(=O)Nc2cc(C(N)(CCC3CC3)c3ccccn3)ccc2F)N(C(=O)Nc2ccc(Cl)cc2)C1 (some centres not stated)
Plasma kallikrein [11]
  IC50: < 0.05 µM

## COc1ccnc(CNC(=O)c2cn(Cc3ccc(Cn4ccccc4=O)cc3)nc2C(F)(F)F)c1F
Kallikrein-1 [16]
  IC50: > 4 µM
Coagulation factor XI [18]
  IC50: > 40 µM
Coagulation factor XII [19]
  IC50: > 4 µM
Trypsin [20]
  IC50: > 40 µM
Plasminogen [21]
  IC50: > 40 µM
Prothrombin [22]
  IC50: > 40 µM

## COCc1nn(Cc2ccc(Cn3cc(C)cn3)cc2)cc1C(=O)NCc1cnc2[nH]cc(Cl)c2c1
Plasma kallikrein [23]
  IC50: 0.0087 µM

## Nc1nccc2ccc(-n3nc(C(F)(F)F)cc3C(=O)Nc3cc(C(NCC4CC4)c4ccccc4)ccc3F)cc12 (configuration not stated)
Plasma kallikrein [11]
  IC50: 0.1 µM

## Cc1cc(C)n(Cc2ccc(Cn3cc(C(=O)NCc4c(C)cc(N)nc4C)nn3)cc2)n1
Plasma kallikrein [1]
  IC50: 0.0029 µM
Coagulation factor XI [24]
  IC50: > 10 µM
Kallikrein-1 [25]
  IC50: > 40 µM

## NCc1cccc(-n2nc(C(F)(F)F)cc2C(=O)Nc2cccc(C(O)c3ccccc3)c2)c1 (configuration not stated)
Plasma kallikrein [11]
  IC50: > 50 µM

## Clc1cnc2ccc(Cc3nc4ncnc(NCc5n[nH]c6ccc(Cl)cc56)c4[nH]3)cc2c1
Plasma kallikrein [5]
  IC50: < 0.1 µM

## CC(=O)c1ccc(NC(=O)C(CCCNC(=N)NS(=O)(=O)c2c(C)cc(C)cc2C)NC(=O)C2CCC(CN)CC2)cc1 (configuration not stated)
Plasma kallikrein [1]
  IC50: 2 µM
Plasminogen [2]
  IC50: 42 µM

## Cc1cc(N)nc(C)c1CNc1ncnc2nc(Cc3ccc4ncc(C(F)(F)F)cc4c3)[nH]c12
Plasma kallikrein [5]
  IC50: < 0.1 µM
